# Measurements taken from ChEMBL document CHEMBL1124318, “Quinazoline antifolates inhibiting thymidylate synthase: synthesis of four oligo(L-gamma-glutamyl) conjugates of N10-propargyl-5,8-dideazafolic acid and their enzyme inhibition” (J Med Chem, 1989).
# Target: T1, Thymidylate synthase (Homo sapiens, UniProt P04818)
# Assay: Fold increase of inhibition of human thymidylate synthase from that of control
# Settings: not given
# Target sequence in this assay (P04818 2-313 limits assumed): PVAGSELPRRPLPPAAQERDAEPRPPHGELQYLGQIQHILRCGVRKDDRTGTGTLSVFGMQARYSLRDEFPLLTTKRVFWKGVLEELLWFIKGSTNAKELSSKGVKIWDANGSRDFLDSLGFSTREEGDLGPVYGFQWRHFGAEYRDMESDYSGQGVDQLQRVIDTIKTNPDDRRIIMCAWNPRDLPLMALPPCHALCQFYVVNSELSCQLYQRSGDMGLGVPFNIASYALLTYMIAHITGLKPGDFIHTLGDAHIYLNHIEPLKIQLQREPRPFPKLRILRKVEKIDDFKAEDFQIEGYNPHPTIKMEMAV
row,Fold increase,Compound
1,97,C#CCN(Cc1ccc2nc(N)nc(O)c2c1)c1ccc(C(=O)NC(CCC(=O)NC(CCC(=O)NC(CCC(=O)O)C(=O)O)C(=O)O)C(=O)O)cc1 (stereo not drawn)
2,31,C#CCN(Cc1ccc2nc(N)nc(O)c2c1)c1ccc(C(=O)NC(CCC(=O)NC(CCC(=O)O)C(=O)O)C(=O)O)cc1 (stereo not drawn)
3,167,C#CCN(Cc1ccc2nc(N)nc(O)c2c1)c1ccc(C(=O)NC(CCC(=O)NC(CCC(=O)NC(CCC(=O)NC(CCC(=O)NC(CCC(=O)O)C(=O)O)C(=O)O)C(=O)O)C(=O)O)C(=O)O)cc1 (stereo not drawn)

row,Compound,Fold increase
1,C#CCN(Cc1ccc2nc(N)nc(O)c2c1)c1ccc(C(=O)NC(CCC(=O)NC(CCC(=O)NC(CCC(=O)NC(CCC(=O)O)C(=O)O)C(=O)O)C(=O)O)C(=O)O)cc1 (stereo not drawn),171

# Target: T1, Thymidylate synthase
# Assay: Compound was tested for inhibition of human (WI-L2) thymidylate synthase
# Settings: read-out: Ki app
# Target sequence in this assay (P04818 whole entry): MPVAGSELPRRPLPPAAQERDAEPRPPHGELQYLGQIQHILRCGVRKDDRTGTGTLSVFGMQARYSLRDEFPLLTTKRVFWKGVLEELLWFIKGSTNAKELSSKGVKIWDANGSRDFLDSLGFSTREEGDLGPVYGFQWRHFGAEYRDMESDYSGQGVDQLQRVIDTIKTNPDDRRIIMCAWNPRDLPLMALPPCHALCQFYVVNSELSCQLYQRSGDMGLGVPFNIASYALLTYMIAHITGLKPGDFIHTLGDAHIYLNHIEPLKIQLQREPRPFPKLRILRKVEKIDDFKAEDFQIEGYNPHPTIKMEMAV
row,Ki,Compound
1,0.224 nM,C#CCN(Cc1ccc2nc(N)[nH]c(=O)c2c1)c1ccc(C(=O)NC(CCC(=O)NC(CCC(=O)O)C(=O)O)C(=O)O)cc1 (stereo not drawn)
2,0.072 nM,C#CCN(Cc1ccc2nc(N)nc(O)c2c1)c1ccc(C(=O)NC(CCC(=O)NC(CCC(=O)NC(CCC(=O)O)C(=O)O)C(=O)O)C(=O)O)cc1 (stereo not drawn)
3,0.042 nM,C#CCN(Cc1ccc2nc(N)[nH]c(=O)c2c1)c1ccc(C(=O)NC(CCC(=O)NC(CCC(=O)NC(CCC(=O)NC(CCC(=O)NC(CCC(=O)O)C(=O)O)C(=O)O)C(=O)O)C(=O)O)C(=O)O)cc1 (stereo not drawn)

row,Compound,Ki
1,C#CCN(Cc1ccc2nc(N)[nH]c(=O)c2c1)c1ccc(C(=O)NC(CCC(=O)NC(CCC(=O)NC(CCC(=O)NC(CCC(=O)O)C(=O)O)C(=O)O)C(=O)O)C(=O)O)cc1 (stereo not drawn),0.041 nM
